Like-named read-outs stand apart in the source and are kept apart here. Blank lines part the entries; values can stand above or below the molecule they belong to. Bridges are numbered along the chain shown (N, C = ends).
How the values were obtained:
NPR2 guanylyl cyclase [1] = assay: cGMP production in chondrocytes of intact tibia growth plates (cGi500 FRET sensor imaging); assay type: cell-based, mouse; conditions: for cGMP increase (CFP/YFP emission ratio from cGi500) on perfusion of agonist: no FGF
Experimental: cGMP production in chondrocytes within intact growth plates was measured using tibias dissected from newborn mice (0- to 1-day-old mice) that globally expressed 1 or 2 copies of the cGi500 FRET sensor, as previously described ([27]). Tibias were dissected and cultured overnight on Millicell organotypic membranes (PICMORG50; MilliporeSigma) in BGJb medium (Thermo Fisher Scientific, catalog 12591-038) with 0.1% BSA (MP Biomedicals, catalog 103700), 100 units/mL of penicillin, and 100 μg/mL of streptomycin (Thermo Fisher Scientific, 15140-122). In preparation for imaging, each tibia was slit to remove the tissue overlying the growth plate. Where indicated, the tibia was incubated in LB-100, cantharidin, or control medium, followed by addition of FGF18 (0.5 μg/mL + 1 μg/mL heparin) or control medium containing heparin only. The tibia was then placed in a perfusion slide (ibidi USA, catalog 80186, special order with no adhesive), and the growth plate was imaged on the stage of a confocal microscope, as previously described ([27]).

PPP2C = system: PPP2C; parameters: method as in PMID 30679389; conditions: reported previously, read-out: Phosphatase IC50 mean ± SE, PPP2C, cited from earlier work
[2] = target: T1, recombinant PPP1CA (PPP1C) (Homo sapiens, UniProt P62136); assay: Phosphatase activity inhibition assay (DiFMUP or [32P]-phosphohistone substrate); assay type: biochemical
T1 construct: made in house; host or cells: E. coli BL-21
T1 sequence (P62136 whole entry): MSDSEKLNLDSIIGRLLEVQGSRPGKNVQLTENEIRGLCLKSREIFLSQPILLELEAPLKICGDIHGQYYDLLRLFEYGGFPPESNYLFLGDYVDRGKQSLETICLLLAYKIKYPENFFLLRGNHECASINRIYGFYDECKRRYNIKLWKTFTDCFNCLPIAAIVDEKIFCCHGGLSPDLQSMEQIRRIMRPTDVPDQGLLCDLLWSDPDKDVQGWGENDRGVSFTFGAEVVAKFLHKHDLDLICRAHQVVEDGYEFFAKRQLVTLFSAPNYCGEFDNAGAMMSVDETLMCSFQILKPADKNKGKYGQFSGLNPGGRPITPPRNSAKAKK
Experimental: The coding sequence of human PPP1CA was expressed as a maltose binding protein fusion in a BL-21 strain of E. coli and purified as previously described ([55]). Phosphohistone phosphatase assays were performed as previously described ([55], [56]). Briefly, LB-100, at the indicated concentrations, or vehicle control (H2O) was added to enzyme/buffer aliquots about 10 minutes prior to starting assays by the addition of [^32P]-phosphohistone substrate (to a final assay concentration of 300 nM incorporated phosphate). [^32P]-phosphohistone was prepared by the phosphorylation of bovine brain histone (MilliporeSigma, type-2AS) with cAMP-dependent protein kinase (PKA) in the presence of cAMP and [^32P]-ATP using established methods ([56], [57]). Phosphatase activity was measured by the quantitation of [^32P]-labeled orthophosphate liberated from the substrate using established protocols ([57]). 6,8-Difluoro-4-methylumbelliferyl phosphate–based (DiFMUP-based) inhibition assays were conducted as described ([56], [57]), in a 96-well format using DiFMUP (Invitrogen) (100 μM final assay concentration). IC50 values were calculated from a 10-point concentration/dose response curve by a 4-parameter logistic fit of the data, using 3–8 replicates per concentration.

PPP5C = system: PPP5C; parameters: method as in PMID 30679389; conditions: reported previously, read-out: Phosphatase IC50 mean ± SE, PPP5C, cited from earlier work
Fgfr3^Y367C/+ femurs = assay: Ex vivo culture of fetal femurs, growth in length and area; parameters: species or system mouse; conditions: E16.5 Fgfr3^Y367C/+ femurs, 6-day culture; LB-100 10 μM, BMN-111 0.1 μM
Experimental: Femurs from E16.5 embryos were cultured ex vivo, as described previously ([32], [47]). The left femur was cultured in the presence of LB-100 (10 μM), BMN-111 (0.1 μM), or LB-100 (10 μM) + BMN-111 (0.1 μM) and was compared with the vehicle-treated right femur. The bone’s length was measured on day 0 (D0) and D6. Images were captured with an Olympus SZX12 stereo microscope and quantified using cellSens software (Olympus). The results were expressed as the increase in femur length or area (D6 – D0) in the presence or absence of LB-100, BMN-111, or LB-100 + BMN-111. Bone length and area were measured as shown in Supplemental Figure 5. To generate the graphs shown in Figure 3, the length or 2-dimensional area on D0 was subtracted from the length or area on D6 to calculate the amount of growth. These measurements of growth in drug-treated bones were divided by the mean values from corresponding measurements of control (vehicle-treated) bones; the graphs show the ratio of treated/control growth.

NPR2 = NPR2 phosphorylation in primary rib chondrocyte cultures (Phos-tag gel electrophoresis, Western blot); assay type: cell-based, mouse; conditions: for NPR2 dephosphorylation in response to FGF: then FGF18 0.5 μg/mL 10 minutes
Experimental: Rib cages were dissected from newborn mice (0–2 days old) and trimmed to remove the skin, spinal cord, and soft tissue around the sternum and ribs. Nonchondrocyte tissue was digested away by incubating the rib cages in 2 mg/mL pronase (Roche, catalog 10165921001) in PBS for 1 hour in a shaking water bath at 37°C and was then incubated in 3 mg/mL collagenase D (Roche, catalog 11088866001) in medium for 1 hour. After washing, the rib cages were transferred to a dish with fresh collagenase D and incubated for 5–6 hours, with trituration at 2 hours, to release the chondrocytes. The isolated cells were passed through a 40 μm nylon cell strainer (Corning, catalog 431750), resuspended in DMEM/F12 medium (Thermo Fisher Scientific, catalog 11320-033) with 10% FBS (Thermo Fisher Scientific, catalog 10082-139), 100 units/mL of penicillin, and 100 μg/mL of streptomycin. The cells were plated in 35 mm tissue culture dishes, at a density corresponding to 1 newborn mouse per dish, and cultured for 3 days, at which point the cells were approximately 75%–90% confluent. They were then washed with PBS and incubated in serum-free medium for 18 hours. The cells were then incubated in LB-100 (10 μM), or control medium, followed by addition of FGF18 (0.5 μg/mL + 1 μg/mL heparin) or control medium containing heparin only.
At end of the incubation period, dishes were washed in PBS, and cells were lysed in 250 μL of 1% SDS containing 10 mM sodium fluoride, 1 μM microcystin-LR (Cayman Chemical, catalog 10007188), and protease inhibitor cocktail (Roche, catalog 04 693 159 001). Protein content was determined by a BCA assay (Pierce, catalog 23225). The protein yield per newborn mouse was approximately 200–300 μg.
Proteins were separated in a Phos-tag–containing gel, as previously described ([58]), except that chondrocyte lysates (30 μg protein) were used without immunoprecipitation. Phos-tag and protein size markers were obtained from Fujifilm Wako Pure Chemical (catalogs AAL-107 and 230-02461, respectively). For these studies, we used mice with HA-tagged NPR2 ([43]), and blots were probed with an antibody against the HA tag (Cell Signaling Technology, catalog 2367, 1:1000 dilution). The specificity of this antibody is validated in Supplemental Figure 3. Note that molecular weight markers are only approximate for Phos-tag gels.

NPR2 guanylyl cyclase [3] = system: NPR2 guanylyl cyclase; parameters: method as in PMID 29199951; conditions: 100 μM; cited from earlier work
children with ACH = system: children with ACH; parameters: method as in PMID 31269546, PMID 32891212; conditions: children 5–14 years of age with ACH, up to 42 months, phase 2 and 3 data; cited from earlier work
Fgfr3^Y367C/+ mice = system: Fgfr3^Y367C/+ mice; parameters: method as in PMID 23200862; conditions: cited from earlier work
[4] = system: growth plate chondrocytes of Fgfr3^Y367C/+ femurs; assay: Histology of growth plates of ex vivo cultured femurs (HES, COLX immunostaining); parameters: species or system mouse; conditions: 6-day culture, LB-100 10 μM, BMN-111 0.1 μM
Text: After a 6-day culture period, fetal femur (E16.5) explants were fixed in 4% paraformaldehyde, decalcified with EDTA (0.4M), and embedded in paraffin. Serial 5 μm sections were stained with hematoxylin‑eosin‑safran (HES) reagent, using standard protocols. For immunohistochemical assessment, sections were labeled with the following antibodies and a Dako Envision Kit: anti-COLX (BIOCYC, catalog N.2031501005; 1:50 dilution), and anti–phosphorylated ERK1‑2 ([…]) (Cell Signaling Technology, catalog 4370; 1:100 dilution). Images were captured with an Olympus PD70-IX2-UCB microscope and quantified using cellSens software.
Mean areas of individual hypertrophic chondrocytes were measured from COLX-labeled sections, within a 166 μm wide × 76 μm high box positioned 50 μm from mineralization front (Supplemental Figure 6). The measurements were made manually using Fiji software and the freehand selection tool. […] We measured the total area occupied by chondrocytes within the whole growth plate and the area occupied by COLX^+ chondrocytes. The area for proliferating chondrocytes was calculated by subtracting the COLX^+ area from the whole growth plate area.

[5] = substrate [32P]-labeled phosphohistone

Molecule: CCN(CC)/[N+]([O-])=N/O.CCNCC [DEA/NO]
cGMP increase (CFP/YFP emission ratio from cGi500) on perfusion of agonist (NPR2 guanylyl cyclase [1]; 10 μM perfused across growth plate of newborn mouse tibia): did not increase cGMP

Molecule: CN1CCN(C(=O)C2C3CCC(O3)C2C(=O)O)CC1 (stereo not shown) [LB-100, 3-[4-methylpiperazine-1-carbonyl]-7-oxabicyclo[2.2.1]heptane-2-carboxylic acid]
IC50 (PPP2C; substrate DiFMUP): 390 ± 13 nM
IC50 (PPP2C; [5]): 640 ± 37 nM
IC50 ([2]; 2 established assays with different substrates, read-out: IC50 for inhibition of PPP1C): < 2000 nM
IC50 ([2]; substrate DiFMUP, read-out: Phosphatase IC50 mean ± SE, PPP1C): 1800 ± 21 nM
IC50 ([2]; substrate [32P]-labeled phosphohistone, read-out: Phosphatase IC50 mean ± SE, PPP1C): 1680 ± 130 nM
IC50 (PPP5C; substrate DiFMUP): 1820 ± 93 nM
IC50 (PPP5C; [5]): 4900 ± 290 nM
Increase in bone length, ratio treated/vehicle-treated control (Fgfr3^Y367C/+ femurs): 1.30
Increase of total bone and cartilage area, growth ratio treated/control (Fgfr3^Y367C/+ femurs): 1.40
NPR2 dephosphorylation in response to FGF (NPR2; 10 μM preincubation 1 hour with BMN-111 0.1 μM present): counteracts the FGF-induced dephosphorylation
NPR2 dephosphorylation in response to FGF (NPR2; 10 μM preincubation 1 hour): only partial
CNP-induced cGMP increase in FGF-treated tibias (NPR2 guanylyl cyclase [1]; 1 μM preincubation 60 minutes before FGF18 (80 minutes)): no effect
Effectiveness in counteracting inactivation of NPR2 by FGF, compared with cantharidin (NPR2 guanylyl cyclase [1]; 5 μM LB-100 equivalent to 10 μM cantharidin): more effective than cantharidin
CNP-induced cGMP increase in FGF-treated tibias (NPR2 guanylyl cyclase [1]; 5 μM preincubation 60 minutes before FGF18 (80 minutes)): enhanced
CNP-induced cGMP increase in FGF-treated tibias (NPR2 guanylyl cyclase [1]; 10 μM preincubation 60 minutes before FGF18 (80 minutes)): enhanced
Chondrocyte morphology in the live growth plate (NPR2 guanylyl cyclase [1]; 10 μM, 2-hour incubation): no visible change in chondrocyte morphology

Molecule: C[C@@]12C(=O)OC(=O)[C@]1(C)[C@H]1CC[C@@H]2O1 [cantharidin, Cantharidin]
Effect on inactivation of NPR2 by FGF in growth plate chondrocytes (NPR2 guanylyl cyclase [3]): inhibits the inactivation of NPR2

Molecule: (Cyc[23,39])H2N-PGQEHPNARKYKGANKKGLSKGCFGLKLDRIGSMSGLGC-OH (H-PGQEHPNARKYKGANKKGLSKGCFGLKLDRIGSMSGLGC-OH; disulfide 23-39) [BMN-111, protease-resistant CNP analog, NPR2 agonist]
Annualized growth velocity (children with ACH): sustained increase in annualized growth velocity
Bone growth in mouse model of ACH (Fgfr3^Y367C/+ mice): increases bone growth
Increase in bone length, ratio treated/vehicle-treated control (Fgfr3^Y367C/+ femurs): 1.78
Increase of total bone and cartilage area, growth ratio treated/control (Fgfr3^Y367C/+ femurs): 1.51
Size of Fgfr3^Y367C/+ hypertrophic chondrocytes ([4]; proximal growth plate): increased the size
Increase of total proliferative growth plate area of the femur over vehicle ([4]; proximal plus distal growth plates): 20%
NPR2 phosphorylation (NPR2; 0.1 μM for 1 hour, independently of FGF treatment): some reduction in NPR2 phosphorylation

Molecule: ANP: A-type natriuretic peptide, which activates the NPR1 guanylyl cyclase
cGMP increase (CFP/YFP emission ratio from cGi500) on perfusion of agonist (NPR2 guanylyl cyclase [1]; 0.1 μM agonist perfused across growth plate of newborn mouse tibia): did not increase cGMP

Effect on cGMP increase in response to CNP perfusion (NPR2 guanylyl cyclase [1]; pretreatment 0.5 μg/mL FGF18 + 1 μg/mL heparin for 80 minutes, 0.1 μM CNP): suppressed the cGMP increase
Molecule: FGF18: fibroblast growth factor 18 used to activate FGF receptor
NPR2 phosphorylation (NPR2; FGF18 0.5 μg/mL for 10 minutes): decrease in NPR2 phosphorylation

From article PMC8262325, “Phosphatase inhibition by LB-100 enhances BMN-111 stimulation of bone growth” (JCI Insight, 2021)
